Consider 9 compounds from patent US12122761B2, “2-azaspiro[3.4]octane derivatives as M4 agonists” (NOVARTIS AG, priority 2019, dated 2024).

A value given as a limit tells only on which side of the number the result lay.

Test [1] deals with T1, human cloned CHRM3 receptor (M3_CHO cells) (Homo sapiens, UniProt P20309).
T1 construct: expressed in transfected cells; host or cells: CHO-K1
In words: CHRM3 Ca++ Flux Assay (agonist mode, FDSS 7000EX). It counts as cell-based. The conditions noted are these: for M3 FDSS PA: Percent Activity measured to EC100 of Carbachol; for EC50: agonist mode, geometric mean if tested more than once, read-out: M3 FDSS EC50. The procedure: (§1) The above examples were characterized by measuring the intracellular mobilization of Ca++ ions caused by signaling events mediated by the receptor. The Intra-cellular Calcium flux levels were captured by the highly sensitive Ca++ indicator, Calcium Assay Kit (BD Biosciences, Catalog Number 640178). The fluorescent activity from all receptors were monitored by the fluorescent imager, FDSS 7000EX (Hamamatsu) over a span of 3 minutes.
CHO-K1 cells stably expressing the human cloned CHRM3 receptor (M3_CHO cells) were grown and maintained in a monolayer culture with F12/HAM (Life Technologies) supplemented with 10% Fetal Bovine Serum, 1× Pen-Strep, and 0.4 mg/mL Geneticin in a humidified atmosphere (5% CO2) at 37° C. The cultures were grown to 80-9 0% confluency in T150 flasks (Corning) and washed with 1×DPBS and lifted with 0.05% Trypsin (Life Technologies). The cells were then spun (1K rpm, 3 minutes) and frozen using Recovery Cell Culture Freezing Media (Gibco Technologies). Cells were stored in liquid nitrogen and thawed a day before the assay. A similar procedure was used for cells stably expressing the human cloned CHRM5 receptor (M5_CHO).
Prior to the day of the assay, stable M3_CHO or M5_CHO cells were thawed and plated on Greiner 384 well black TC treated plates at 12K cells/well in F12/DMEM supplemented with 10% FBS (Hyclone) and kept overnight in a humidified atmosphere (5% CO2) at 37° C. The next day, cells were loaded with Ca^++ dye (BD Biosciences) using Loading Buffer (HBSS +Ca/+Mg, 20 mM HEPES, 2.5 mM Probenecid) and placed back in cell incubator for a minimum of 1 hour. After incubation, the dye was replaced with Assay Buffer (HBSS −Ca/−Mg, 20 mM HEPES, 2.5 mM Probenecid) and kept at room temperature in the dark before running on cell imager. The FDSS 7000EX (Hamamatsu) was used to acquire Ca^++ traces from cells treated with 11 point dose response of compounds in triplicate in order to generate dose response curves in agonist mode. All compounds were serially diluted in DMSO then prepared in Assay Buffer for Ca^++ flux studies. The dose response curves were generated from the average of triplicate wells obtained from each data point and used a non-linear regression of four parameter dose response algorithm. The Percent Activity (PA) was measured to EC100 of Carbachol.

For test [2], the target named is T2, human cloned CHRM4 receptor (M4_CHO cells) (Homo sapiens, UniProt P08173).
T2 construct: expressed in transfected cells; host or cells: CHO-K1
T2 sequence (P08173 1-479): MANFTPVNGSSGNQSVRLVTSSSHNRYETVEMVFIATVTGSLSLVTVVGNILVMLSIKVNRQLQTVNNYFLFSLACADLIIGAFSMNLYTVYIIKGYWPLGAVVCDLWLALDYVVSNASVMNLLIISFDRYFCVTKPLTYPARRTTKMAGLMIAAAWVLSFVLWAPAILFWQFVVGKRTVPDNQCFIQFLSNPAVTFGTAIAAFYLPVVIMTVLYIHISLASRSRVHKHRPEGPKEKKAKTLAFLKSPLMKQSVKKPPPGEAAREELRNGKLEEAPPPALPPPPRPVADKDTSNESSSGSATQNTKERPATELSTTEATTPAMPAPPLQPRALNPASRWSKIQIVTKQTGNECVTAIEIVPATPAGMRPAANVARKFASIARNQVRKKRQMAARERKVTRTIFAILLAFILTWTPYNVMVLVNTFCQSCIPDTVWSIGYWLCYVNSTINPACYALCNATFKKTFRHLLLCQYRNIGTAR
The test is described as follows: CHRM4 Ca++ Flux Assay (agonist mode, FDSS 7000EX). It counts as cell-based. The conditions noted are these: for M4 FDSS PA: Percent Activity; for EC50: geometric mean if tested more than once, read-out: M4 FDSS EC50. The procedure: as §1
CHO-K1 cells stably expressing the human cloned CHRM4 receptor (M4_CHO cells) were grown and maintained in a monolayer culture with F12/HAM (Life Technologies) supplemented with 10% Fetal Bovine Serum, 1× Pen-Strep, and 0.4 mg/mL Geneticin in a humidified atmosphere (5% CO2) at 37° C. The cultures were grown to 80-90% confluency in T150 flasks (Corning) and washed with 1×DPBS then lifted with 0.05% Trypsin (Life Technologies). The cells were harvested in growth media then spun (1K rpm, 3 minutes) and cryopreserved using Recovery Cell Culture Freezing Media (Gibco Technologies). Cells were stored in liquid nitrogen and thawed a day before the assay.
Prior to the day of the assay, stable M4_CHO cells were thawed and plated on 384 well black walled clear bottom TC treated plates (Greiner Cat #781091) at 12K cells/well using F12/HAM Media supplemented with 10% FBS (Life Technologies) and kept overnight in a humidified atmosphere (5% CO2) at 37° C. The next day, cells were loaded with […] Ca^++ dye (BD Biosciences) using Loading Buffer (HBSS +Ca/+Mg, 20 mM HEPES, 2.5 mM Probenecid) and placed back in cell incubator for a minimum of 1 hour. After incubation, the dye was replaced with 45 μL Assay Buffer (HBSS −Ca/−Mg, 20 mM HEPES, 2.5 mM Probenecid) supplemented with 20 μM ATP (Sigma Aldrich) and kept at room temperature in the dark for 60 minutes before running on a cell imager. The FDSS 7000EX (Hamamatsu) was used to capture Ca^++ traces for a span of 3 minutes from cells treated with 11 point dose of compound in triplicate in order to generate dose response curves in agonist mode. All compounds were serially diluted in DMSO then prepared in Assay Buffer for Ca^++ flux studies. The dose response curves were generated from the average of triplicate wells obtained from each data point and used a non-linear regression of four parameter dose response algorithm. The Percent Activity (PA) was measured to EC100 of Carbachol.

T1 sequence (P20309 whole entry): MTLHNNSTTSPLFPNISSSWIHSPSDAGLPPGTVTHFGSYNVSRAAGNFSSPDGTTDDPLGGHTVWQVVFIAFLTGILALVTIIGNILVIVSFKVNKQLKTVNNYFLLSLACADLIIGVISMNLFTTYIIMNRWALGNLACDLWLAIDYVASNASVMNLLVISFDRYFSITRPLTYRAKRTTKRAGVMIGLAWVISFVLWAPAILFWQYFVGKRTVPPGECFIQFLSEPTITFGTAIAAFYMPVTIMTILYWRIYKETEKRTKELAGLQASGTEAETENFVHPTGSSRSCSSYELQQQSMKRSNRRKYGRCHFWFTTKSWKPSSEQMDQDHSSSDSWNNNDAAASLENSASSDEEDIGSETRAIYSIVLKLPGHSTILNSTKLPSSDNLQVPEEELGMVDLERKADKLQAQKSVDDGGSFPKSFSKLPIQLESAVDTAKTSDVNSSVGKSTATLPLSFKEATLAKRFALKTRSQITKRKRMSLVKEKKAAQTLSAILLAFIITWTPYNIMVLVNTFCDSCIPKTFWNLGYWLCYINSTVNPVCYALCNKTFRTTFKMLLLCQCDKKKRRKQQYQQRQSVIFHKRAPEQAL

A word on the EC50: it is the concentration giving half of the maximal effect. `O=C(N1CC2(CC[C@@H](N3CCC(c4ccccc4OCC4CC4)CC3)C2)C1)C1(F)CC1` (single isomer, unassigned) [Example 7O, (R)-(6-(4-(2-(cyclopropylmethoxy)phenyl)piperidin-1-yl)-2-azaspiro[3.4]octan-2-yl)(1-fluorocyclopropyl)methanone or (R)-(6-(4-(2-(cyclopropylmethoxy)phenyl)piperidin-1-yl)-2-azaspiro[3.4]octan-2-yl)(1-fluorocyclopropyl)methanone]: in test [1], the “M3 FDSS PA” value stood at 0% and the EC50 was greater than 25000 nM. In addition, in test [2], the “M4 FDSS PA” value came to 42% and the EC50 was 9 nM.
As for `O=C1CCCN1CCOc1ccccc1C1CCN([C@@H]2CCC3(C2)CN(C(=O)C2(F)CC2)C3)CC1.O=CO` (single isomer, unassigned) [Example 7P, (R)-1-(2-(2-(1-(2-(1-fluorocyclopropane-1-carbonyl)-2-azaspiro[3.4]octan-6-yl)piperidin-4-yl)phenoxy)ethyl)pyrrolidin-2-one formate salt or (S)-1-(2-(2-(1-(2-(1-fluorocyclopropane-1-carbonyl)-2-azaspiro[3.4]octan-6-yl)piperidin-4-yl)phenoxy)ethyl)pyrrolidin-2-one formate salt], in test [1], the “M3 FDSS PA” value is on record as 0% and the EC50 is greater than 25000 nM. Moreover, in test [2], the “M4 FDSS PA” value amounted to 49% and the EC50 was found to be 1 nM.
In the same order, the values of `O=C(N1CC2(CC[C@@H](N3CCC(c4ccccc4OCC4CCOCC4)CC3)C2)C1)C1(F)CC1` (single isomer, unassigned) [Example 7Q, (R)-(1-fluorocyclopropyl)(6-(4-(2-((tetrahydro-2H-pyran-4-yl)methoxy)phenyl)piperidin-1-yl)-2-azaspiro[3.4]octan-2-yl)methanone or (S)-(1-fluorocyclopropyl)(6-(4-(2-((tetrahydro-2H-pyran-4-yl)methoxy)phenyl)piperidin-1-yl)-2-azaspiro[3.4]octan-2-yl)methanone] are 0%, greater than 25000 nM, 48% and 3 nM.
In the case of `Cc1nnc(COc2ccccc2C2CCN([C@@H]3CCC4(C3)CN(C(=O)C3(F)CC3)C4)CC2)s1` (single isomer, unassigned) [Example 7R, (R)-(1-fluorocyclopropyl)(6-(4-(2-((5-methyl-1,3,4-thiadiazol-2-yl)methoxy)phenyl)piperidin-1-yl)-2-azaspiro[3.4]octan-2-yl)methanone or (S)-(1-fluorocyclopropyl)(6-(4-(2-((5-methyl-1,3,4-thiadiazol-2-yl)methoxy)phenyl)piperidin-1-yl)-2-azaspiro[3.4]octan-2-yl)methanone], in test [1], the “M3 FDSS PA” value is on record as 0% and the EC50 was greater than 25000 nM. For the same compound, in test [2], the “M4 FDSS PA” value stood at 36% and the EC50 was determined as 62 nM.
As for `CCOc1ccccc1C1CCN([C@@H]2CCC3(C2)CN(C(=O)C2(F)CC2)C3)CC1` (single isomer, unassigned) [Example 7S, (R)-(6-(4-(2-ethoxyphenyl)piperidin-1-yl)-2-azaspiro[3.4]octan-2-yl)(1-fluorocyclopropyl)methanone or (S)-(6-(4-(2-ethoxyphenyl)piperidin-1-yl)-2-azaspiro[3.4]octan-2-yl)(1-fluorocyclopropyl)methanone], in test [1], the “M3 FDSS PA” value worked out at 0% and the EC50 is greater than 25000 nM. Also, in test [2], the “M4 FDSS PA” value turned out to be 26% and the EC50 was determined as 2650 nM.
For `O=C(N1CC2(CC[C@@H](N3CCC(c4ccccc4OCC4CC4)CC3)C2)C1)C1(F)CC1` (single isomer, unassigned) [Example 7T, (R)-(6-(4-(2-(cyclopropylmethoxy)phenyl)piperidin-1-yl)-2-azaspiro[3.4]octan-2-yl)(1-fluorocyclopropyl)methanone or (R)-(6-(4-(2-(cyclopropylmethoxy)phenyl)piperidin-1-yl)-2-azaspiro[3.4]octan-2-yl)(1-fluorocyclopropyl)methanone] the same measures were 0%, greater than 25000 nM, 5% and 12100 nM.
Regarding `Cc1noc(C)c1COc1ccccc1C1CCN([C@@H]2CCC3(C2)CN(C(=O)C2(F)CC2)C3)CC1` (single isomer, unassigned) [Example 7U, (R)-(6-(4-(2-((3,5-dimethylisoxazol-4-yl)methoxy)phenyl)piperidin-1-yl)-2-azaspiro[3.4]octan-2-yl)(1-fluorocyclopropyl)methanone or (S)-(6-(4-(2-((3,5-dimethylisoxazol-4-yl)methoxy)phenyl)piperidin-1-yl)-2-azaspiro[3.4]octan-2-yl)(1-fluorocyclopropyl)methanone], in test [1], the “M3 FDSS PA” value is recorded as 0% and the 50% effective concentration (EC50) was greater than 25000 nM. In addition, in test [2], the “M4 FDSS PA” value was found to be 1% and the EC50 is greater than 25000 nM.
On to `Cc1ncc(COc2ccccc2C2CCN([C@@H]3CCC4(C3)CN(C(=O)C3(F)CC3)C4)CC2)o1` (single isomer, unassigned) [Example 7V, (R)-(1-fluorocyclopropyl)(6-(4-(2-((2-methyloxazol-5-yl)methoxy)phenyl)piperidin-1-yl)-2-azaspiro[3.4]octan-2-yl)methanone or (S)-(1-fluorocyclopropyl)(6-(4-(2-((2-methyloxazol-5-yl)methoxy)phenyl)piperidin-1-yl)-2-azaspiro[3.4]octan-2-yl)methanone], for which, in test [1], the “M3 FDSS PA” value came out at 0% and the EC50 was greater than 25000 nM. Also, in test [2], the “M4 FDSS PA” value is on record as 23% and the EC50 stood at 353 nM.
Regarding `Cc1nnc(COc2ccccc2C2CCN([C@@H]3CCC4(C3)CN(C(=O)C3(F)CC3)C4)CC2)o1` (single isomer, unassigned) [Example 7W, (R)-(1-fluorocyclopropyl)(6-(4-(2-((5-methyl-1,3,4-oxadiazol-2-yl)methoxy)phenyl)piperidin-1-yl)-2-azaspiro[3.4]octan-2-yl)methanone or (S)-(1-fluorocyclopropyl)(6-(4-(2-((5-methyl-1,3,4-oxadiazol-2-yl)methoxy)phenyl)piperidin-1-yl)-2-azaspiro[3.4]octan-2-yl)methanone], in test [1], the “M3 FDSS PA” value was 0% and the EC50 is greater than 25000 nM. Besides, in test [2], the “M4 FDSS PA” value was determined as 67% and the EC50 was less than 0.4 nM.
